Source: patent US10155817B2, “Dual-target antibody targeting VEGFR-2 and DLL4 and pharmaceutical composition including same” (PharmAbcine Inc., priority 2012, dated 2018)

B1: Notch-1 Fc: Notch-1 Fc protein used as comparator for binding to hDLL4 (protein)
chain: ARGPRCSQPGETCLNGGKCEAANGTEACVCGGAFVGPRCQDPNPCLSTPCKNAGTCHVVDRRGVADYACSCALGFSGPLCLTPLDNACLTNPCRNGGTCDLLTLTEYKCRCPPGWSGKSCQQADPCASNPCANGGQCLPFEASYICHCPPSFHGPTCRQDVNECGQKPGLCRHGGTCHNEVGSYRCVCRATHTGPNCERPYVPCSPSPCQNGGTCRPTGDVTHECACLPGFTGQNCEENIDDCPGNNCKNGGACVDGVNTYNCRCPPEWTGQYCTEDVDECQLMPNACQNGGTCHNTHGGYNCVCVNGWTGEDCSENIDDCASAACFHGATCHDRVASFYCECPHGRTGLLCHLNDACISNPCNEGSNCDTNPVNGKAICTCPSGYTGPACSQDVDECSLGANPCEHAGKCINTLGSFECQCLQGYTGPRCEIDVNECVSNPCQNDATCLDQIGEFQCICMPGYEGVHCEVNTDECASSPCLHNGRCLDKINEFQCECPTGFTGHLCQ
modifications: left off: a dimerising Fc or GST

Tests used:
Notch-1 = assay: Promoter activity by Notch-1, luciferase reporter in LS174T cells co-cultured with 293-hDLL4; assay type: cell-based, human; details: antibody 20 mg/ml, DAPT 5 mM, co-culture with 293-hDLL4 24 hours, luminescence, versus untreated antibody group, FIG. 9
Procedure: 1×10^5 LS174T cells (colon cancer cell line; ATCC, CL-188™) were incubated in RPMI medium containing 10% of fetal calf serum for 24 hours, and 0.8 μg of Notch Cignal reporter DNA contained in Cignal Reporter Assay Kit (#336841 CCS-014L, QIAGEN) and 2 μl of lipofectamine (#11668-500; Invitrogen) were mixed with 100 μl of opti-MEM media and allowed to stand for 20 minutes, and then 400 μl of opti-MEM was added for transfection to incubate cells for 6 hours. After 6 hours, the medium was replaced with an MEM medium containing 10% fetal calf serum, and incubated overnight. Next day, Tanibirumab and PMC-201 (each of 20 mg/ml) were mixed and pre-treated in 1×10^5 of 293-hDLL4 cells for 1 hour, then co-cultured with LS174T cells transfected with Notch Cignal reporter DNA for 24 hours. DAPT (5 mM) was not pre-treated and 293-hDLL4 cell was mixed with the transfected LS174T cells, and co-cultured for 24 hours.
After co-culture for 24 hours, cells were lyzed by using a lysis buffer contained in Dual-Luciferase Reporter Assay System (Cat. # E1910; Promega), and a substrate and ATP were mixed with each other, and then luminescence amount was measured by using Luminometer.

human DLL4 = target: T1, human DLL4 (Homo sapiens, UniProt Q9NR61); assay: Biacore affinity analysis to human DLL4; assay type: binding; details: BIACORE 3000, CM5 chip, sample immobilized, DLL4 4.9-312.5 nM as antigen, FIG. 5
T1 construct: expressed in transfected cells; host or cells: 293 cells stably transfected with pcDNA-hDLL4 (293-DLL4 pool; clone 293-hDLL4)
T1 sequence (Q9NR61 27-685): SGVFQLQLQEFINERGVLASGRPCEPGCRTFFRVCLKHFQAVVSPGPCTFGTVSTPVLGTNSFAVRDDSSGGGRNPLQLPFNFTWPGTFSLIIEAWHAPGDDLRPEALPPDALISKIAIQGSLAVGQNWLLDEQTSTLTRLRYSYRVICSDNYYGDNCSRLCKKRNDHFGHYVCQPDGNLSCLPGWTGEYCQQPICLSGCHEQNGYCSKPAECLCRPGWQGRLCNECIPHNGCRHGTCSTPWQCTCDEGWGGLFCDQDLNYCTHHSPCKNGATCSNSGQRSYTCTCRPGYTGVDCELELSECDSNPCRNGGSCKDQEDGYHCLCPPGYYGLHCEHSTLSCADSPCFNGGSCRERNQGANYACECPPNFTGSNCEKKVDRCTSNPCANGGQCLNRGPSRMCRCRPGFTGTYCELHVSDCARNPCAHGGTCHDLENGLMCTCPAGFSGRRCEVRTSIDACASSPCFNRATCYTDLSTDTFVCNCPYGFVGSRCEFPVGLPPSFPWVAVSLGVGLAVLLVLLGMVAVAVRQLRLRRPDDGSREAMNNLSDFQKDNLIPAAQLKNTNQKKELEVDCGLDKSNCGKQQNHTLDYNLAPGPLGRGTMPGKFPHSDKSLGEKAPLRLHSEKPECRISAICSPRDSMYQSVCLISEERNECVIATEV
Procedure: In order to calculate Kd (dissociation constant) of PMC-201 to human DLL4, BIACORE® 3000 (GE Healthcare) was used, and CM5 chip was used. The dissociation constant is similar to Km value, and is used as an affinity index of an enzyme to a substrate in an enzyme-substrate complex. The affinity between the enzyme and the substrate is increased as the dissociation constant is decreased.
The sample was immobilized by using 400 mM EDC (N-ethyl-N′-(dimethylaminopropyl) Carbodiimide), 100 mM NHS (N-Hydroxysuccinimide), and 1M ethanolamine hydrochloride (pH 8.5) that are an Amine Coupling Kit (GE Healthcare), and 20 mM sodium hydroxide as a generation buffer, and 1×PBS as an immobilization buffer were diluted, and then the analysis sample was 1:40 diluted in 10 mM acetate (pH 5.0) (GE Healthcare). The sample was immobilized at 4000RU (Response Unit). A buffer for measuring adsorption of the analysis sample was a HBS-EP buffer (GE Healthcare). DLL4s having measurement concentrations of 4.9, 9.7, 19.5, 39.1, 78.1, 156.3, 312.5 nM as an antigen were serial-diluted so as to have a final volume of 200 μl by using an HBS-EP buffer. Five concentrations of seven concentrations were selected and fitted. […] Affinity of the analysis sample was measured under conditions in which an analysis flow rate was 30 μl/min, a binding section was 60 seconds, and a dissociation was 300 seconds.

Molecule	promoter activation of NICD exhibited by Notch-1 activation of LS174T cells (Notch-1)	affinity (Kd, dissociation constant) to human DLL4 (human DLL4)
C[C@H](NC(=O)Cc1cc(F)cc(F)c1)C(=O)N[C@H](C(=O)OC(C)(C)C)c1ccccc1 [DAPT, N—[N-(3,5-Difluorophenacetyl)-L-alanyl]-S-phenylglycine t-butyl ester]	decreased	–
B1	–	affinity was confirmed
